Measurements reported in publication PMC10938303 (Bioorganic & medicinal chemistry letters, 2022).

Legend:
[1] = biological target: T1, hM5 (Homo sapiens, UniProt P08912); experiment: Calcium mobilization assay with hM5-CHO cells, EC80 acetylcholine; type: cell-based; details: for hM5 IC50: hM5-CHO cells, EC80 acetylcholine, one experiment in triplicate
T1 sequence (P08912 1-532): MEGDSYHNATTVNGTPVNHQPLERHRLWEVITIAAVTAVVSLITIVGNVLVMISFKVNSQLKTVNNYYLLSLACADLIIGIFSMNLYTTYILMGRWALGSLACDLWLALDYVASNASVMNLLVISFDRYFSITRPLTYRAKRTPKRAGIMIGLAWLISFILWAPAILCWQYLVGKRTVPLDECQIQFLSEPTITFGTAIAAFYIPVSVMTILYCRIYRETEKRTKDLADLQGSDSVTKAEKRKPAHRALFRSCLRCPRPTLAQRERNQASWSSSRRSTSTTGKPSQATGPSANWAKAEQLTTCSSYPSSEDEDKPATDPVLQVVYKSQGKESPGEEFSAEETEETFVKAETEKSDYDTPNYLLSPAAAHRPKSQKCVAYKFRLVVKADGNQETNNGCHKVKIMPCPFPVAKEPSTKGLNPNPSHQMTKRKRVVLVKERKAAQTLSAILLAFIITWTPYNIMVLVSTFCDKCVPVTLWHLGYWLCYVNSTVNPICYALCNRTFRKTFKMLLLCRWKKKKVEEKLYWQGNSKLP

[2] = In vitro clearance, human; type: in vitro ADME
[3] = In vitro clearance, rat; type: in vitro ADME

Row | Compound | hM5 IC50 [1] | Predicted CLhep (h) [2] [mL/min/kg] | Predicted CLhep (r) [3] [mL/min/kg] | fold more potent than (S)-12a (12c) (hM5 IC50) ([1]; versus 12c) [fold]
1 | C[C@@H]1CN(S(=O)(=O)c2ccc3c(c2)CCO3)C[C@@H]1C(=O)Nc1ccc2scnc2c1 [12e] |  | 19 | 64 | 
2 | O=C(Nc1ccc2scnc2c1)[C@H]1CCN(S(=O)(=O)c2ccc3c(c2)CCO3)C1 [12c] |  | 16 | 52 | 
3 | O=C(Nc1ccc2scnc2c1)[C@@H]1CCN(S(=O)(=O)c2ccc3c(c2)CCO3)C1 [12d] |  | 15 | 59 | 21
4 | O=C(Nc1ccc2scnc2c1)C12CC1CN(S(=O)(=O)c1ccc3c(c1)CCO3)C2 (centres unmarked) [12h] |  | 18 | 60 | 
5 | O=C(Nc1ccc2scnc2c1)C1CCN(S(=O)(=O)c2ccc3c(c2)CCO3)C1 (centres unmarked) [12a] |  | 16 | 55 | 
6 | O=C(Nc1ccc2scnc2c1)C1CN(S(=O)(=O)c2ccc3c(c2)CCO3)C1 [12b] |  | 16 | 57 | 
7 | C[C@H]1CN(S(=O)(=O)c2ccc3c(c2)CCO3)C[C@@H]1C(=O)Nc1ccc2scnc2c1 [12f] |  | 4 | 29 | 
8 | O=C(Nc1ccc2scnc2c1)[C@H]1CN(S(=O)(=O)c2ccc3c(c2)CCO3)C[C@@H]1C(F)(F)F [12g] | inactive |  |  | 

Second part, the compound after the results:

Row | hM5 IC50 [1] | Predicted CLhep (h) [2] [mL/min/kg] | Predicted CLhep (r) [3] [mL/min/kg] | fold more potent than (S)-12a (12c) (hM5 IC50) ([1]; versus 12c) [fold] | Compound
9 | inactive |  |  |  | O=C(Nc1ccc2scnc2c1)[C@@H]1CCN(S(=O)(=O)c2cccnc2)C1 [17c]
10 | significantly less active |  |  |  | O=C(Nc1ccc2scnc2c1)[C@@H]1CCN(S(=O)(=O)c2ccc3c(c2)CCC3)C1 [17h]
11 | inactive |  |  |  | Cc1nn(C)cc1S(=O)(=O)N1CC[C@@H](C(=O)Nc2ccc3scnc3c2)C1 [17a]
12 | inactive |  |  |  | O=C(Nc1ccc2scnc2c1)[C@@H]1CCN(S(=O)(=O)c2ccc(Cl)nc2)C1 [17d]
13 |  | 13 | 29 |  | O=C(Nc1ccc2scnc2c1)[C@@H]1CCN(S(=O)(=O)c2ccc3ncsc3c2)C1 [17j]
14 |  | 15 | 49 |  | [2H]C1([2H])Oc2ccc(S(=O)(=O)N3CC[C@@H](C(=O)Nc4ccc5scnc5c4)C3)cc2C1([2H])[2H] [17f]
15 |  | 14 | 51 |  | O=C(Nc1ccc2scnc2c1)[C@@H]1CCN(S(=O)(=O)c2ccc3ncccc3c2)C1 [17i]
16 | inactive |  |  |  | Cn1cc(S(=O)(=O)N2CC[C@@H](C(=O)Nc3ccc4scnc4c3)C2)c(C(F)(F)F)n1 [17b]
17 |  | 12 | 55 |  | O=C(Nc1ccc2scnc2c1)[C@@H]1CCN(S(=O)(=O)c2ccc3c(c2)OCO3)C1 [17g]
